From DBAASP
≈ marks a conversion by molar mass, not a printed value. Where “and” joins values, the source holds several entries; their conditions need not be identical. Equal values may be shown once. One block for each compound: values may come before it.

Tests used:
Test in all cases: ≥ marks a high value that may be exact or a test limit, other limits are often not marked, values filed in µg/mL are converted to µM
[1] = test system: Acinetobacter baumannii ATCC 19606
[2] = test system: Bordetella bronchiseptica CUN 11844-99
[3] = test system: Brucella abortus 9.49 (per-)
[4] = test system: Escherichia coli ATCC 23716
[5] = test system: Escherichia coli ATCC 25922
[6] = test system: Pseudomonas aeruginosa CUN 4158-02
[7] = test system: Staphylococcus aureus ATCC 43300
[8] = test system: Staphylococcus aureus ΔmprFpRBsyn
[9] = test system: Staphylococcus aureus ΔmprF
Staphylococcus aureus = test system: Staphylococcus aureus
Yersinia pestis KIM pYV = test system: Yersinia pestis KIM pYV
[10] = test system: Bacillus cereus ATCC 11778
[11] = test system: Bacillus megaterium ATCC 10778
[12] = test system: Bacillus subtilis CCT 2471
Bacillus thuringiensis = test system: Bacillus thuringiensis
[13] = test system: Candida albicans ATCC 18804
Candida albicans MDM8 = test system: Candida albicans MDM8
[14] = test system: Candida tropicalis IOC 4560
Escherichia coli AIG 221 = test system: Escherichia coli AIG 221
Escherichia coli AIG 222 = test system: Escherichia coli AIG 222
[15] = test system: Escherichia coli ATCC 10536
[16] = test system: Escherichia coli ATCC 11775
Escherichia coli BL21 = test system: Escherichia coli BL21
[17] = test system: Escherichia coli CCT 1371
[18] = test system: Escherichia coli KCTC 1682
Escherichia coli SBS 363 = test system: Escherichia coli SBS 363
[19] = test system: Klebsiella aerogenes ATCC 13048
[20] = test system: Klebsiella oxytoca CIP 79.32
[21] = test system: Klebsiella pneumoniae ATCC 13883
Micrococcus luteus A270 = test system: Micrococcus luteus A270
Proteus mirabilis = test system: Proteus mirabilis
[22] = test system: Pseudomonas aeruginosa ATCC 15442
[23] = test system: Pseudomonas aeruginosa ATCC 27853
[24] = test system: Pseudomonas aeruginosa ATCC BAA-427
[25] = test system: Pseudomonas aeruginosa CCARM 2095
[26] = test system: Pseudomonas aeruginosa KCTC 1637
[27] = test system: Pseudomonas aeruginosa NCIB 10421
[28] = test system: Pseudomonas aeruginosa PAO1
[29] = test system: Salmonella enterica subsp. enterica serovar Typhimurium ATCC 14028
[30] = test system: Salmonella typhimurium KCTC 1926
[31] = test system: Serratia marcescens ATCC 4112
[32] = test system: Staphylococcus aureus ATCC 12600
[33] = test system: Staphylococcus aureus ATCC 25293
[34] = test system: Staphylococcus aureus ATCC 25923
[35] = test system: Staphylococcus aureus ATCC 6538
[36] = test system: Staphylococcus aureus CCARM 3001
[37] = test system: Staphylococcus aureus CCARM 3543
[38] = test system: Staphylococcus aureus KCTC 1621
[39] = test system: Staphylococcus epidermidis ATCC 12228
[40] = test system: Staphylococcus epidermidis KCTC 1917
[41] = test system: Staphylococcus saprophyticus
Bacillus megaterium Bm11 = test system: Bacillus megaterium Bm11
[42] = test system: Candida albicans ATCC 10231
Candida tropicalis = test system: Candida tropicalis
Escherichia coli D21 = test system: Escherichia coli D21
Mammaliicoccus lentus = test system: Mammaliicoccus lentus
Micrococcus luteus = test system: Micrococcus luteus
[43] = test system: Phytophthora nicotianae PG344
[44] = test system: Pseudomonas syringae pv. tabaci
[45] = test system: Yersinia pseudotuberculosis YPIII

SMILES: CC[C@H](C)[C@H](NC(=O)[C@H](CCCCN)NC(=O)[C@H](CCCCN)NC(=O)[C@H](CO)NC(=O)[C@@H](NC(=O)CNC(=O)[C@H](CCCN=C(N)N)NC(=O)[C@H](CC(C)C)NC(=O)[C@@H](NC(=O)[C@@H](N)CCCCN)[C@@H](C)CC)C(C)C)C(=O)N[C@@H](CCSC)C(=O)N[C@@H](CCCN=C(N)N)C(=O)N[C@H](C(=O)N[C@@H](Cc1ccccc1)C(=O)N[C@@H](CC(C)C)C(=O)N[C@@H](CCCN=C(N)N)C(=O)N[C@@H](CCCN=C(N)N)C(=O)N[C@H](C(=O)N[C@@H](CC(C)C)C(=O)N[C@H](C(=O)NCC(=O)N[C@@H](CCCCN)C(=O)N[C@@H](CCCCN)C(N)=O)[C@@H](C)O)[C@@H](C)CC)[C@@H](C)O [KILRGVSKKIMRTFLRRILTGKK]
MIC [1]: 1.46 µM (≈ 4 µg/mL)
MIC [2]: 0.729 µM (≈ 2 µg/mL)
MIC [3]: 1.46 µM (≈ 4 µg/mL)
MIC [4]: 2.92 µM and 6.93 µM
MIC [5]: 1.46 µM (≈ 4 µg/mL)
MIC [6]: 1.46 µM (≈ 4 µg/mL)
MIC [7]: 23.3 µM (≈ 64 µg/mL)
MIC [8]: 1.46 µM (≈ 4 µg/mL)
MIC [9]: 1.46 µM (≈ 4 µg/mL)
MIC (Staphylococcus aureus): 5.83 µM (≈ 16 µg/mL)
MIC (Yersinia pestis KIM pYV): 5.83 µM (≈ 16 µg/mL)

MIC [1]: 8 µM (≈ 12 µg/mL)
MIC [10]: ≥ 66.5 µM
MIC [11]: 0.78 µM (≈ 1.17 µg/mL)
MIC [12]: 6.65 µM (≈ 9.99 µg/mL)
MIC (Bacillus thuringiensis): 16.6 µM (≈ 25 µg/mL)
MIC [13]: 12.5 µM (≈ 18.8 µg/mL)
MIC (Candida albicans MDM8): 3.13 µM (≈ 4.7 µg/mL)
MIC [14]: 1.56 µM (≈ 2.34 µg/mL)
MIC (Escherichia coli AIG 221): ≥ 32 µM
MIC (Escherichia coli AIG 222): 16 µM (≈ 24 µg/mL)
MIC [15]: 3 µM (≈ 4.51 µg/mL)
MIC [16]: ≥ 32 µM
MIC (Escherichia coli BL21): 4 µM (≈ 6.01 µg/mL)
MIC [17]: 3.32 µM (≈ 5 µg/mL)
MIC [18]: 4 µM (≈ 6.01 µg/mL)
MIC (Escherichia coli SBS 363): 1.56 µM (≈ 2.34 µg/mL)
MIC [19]: ≥ 66.5 µM
MIC [20]: 16 µM (≈ 24 µg/mL)
MIC [21]: ≥ 64 µM
MIC (Micrococcus luteus A270): 0.78 µM (≈ 1.17 µg/mL)
MIC (Proteus mirabilis): ≥ 133 µM
MIC [22]: ≥ 133 µM
MIC [23]: 66.5 µM (≈ 99.9 µg/mL)
MIC [24]: 4 µM (≈ 6.01 µg/mL)
MIC [25]: 1 µM (≈ 1.5 µg/mL)
MIC [26]: 2 µM (≈ 3.01 µg/mL)
MIC [27]: ≥ 50 µM
MIC [28]: > 128 µM
MIC [29]: 66.5 µM (≈ 99.9 µg/mL)
MIC [30]: 2 µM (≈ 3.01 µg/mL)
MIC [31]: 0.36 µM (≈ 0.541 µg/mL)
MIC [32]: 8 µM (≈ 12 µg/mL)
MIC [33]: 0.665 µM (≈ 0.999 µg/mL)
MIC [34]: 2 µM (≈ 3.01 µg/mL)
MIC [35]: 3.32 µM (≈ 5 µg/mL)
MIC [36]: 1 µM (≈ 1.5 µg/mL)
MIC [37]: 1 µM (≈ 1.5 µg/mL)
MIC [38]: 2 µM (≈ 3.01 µg/mL)
MIC [39]: 8 µM (≈ 12 µg/mL)
MIC [40]: 2 µM (≈ 3.01 µg/mL)
MIC [41]: 0.665 µM (≈ 0.999 µg/mL)
SMILES: CC[C@H](C)[C@H](N)C(=O)N[C@@H](CC(C)C)C(=O)NCC(=O)N[C@@H](CCCCN)C(=O)N[C@H](C(=O)N[C@@H](Cc1c[nH]c2ccccc12)C(=O)N[C@@H](CCC(=O)O)C(=O)NCC(=O)N[C@H](C(=O)N[C@@H](CCCCN)C(=O)N[C@@H](CO)C(=O)N[C@@H](CC(C)C)C(=O)N[C@@H](Cc1ccccc1)C(N)=O)[C@@H](C)CC)[C@@H](C)CC [ILGKIWEGIKSLF]

MIC (Bacillus megaterium Bm11): 3 µM (≈ 5.67 µg/mL)
MIC [42]: 22 µM (≈ 41.6 µg/mL)
MIC (Candida tropicalis): 14 µM (≈ 26.5 µg/mL)
MIC (Escherichia coli D21): 30 µM (≈ 56.7 µg/mL)
MIC (Mammaliicoccus lentus): 10 µM (≈ 18.9 µg/mL)
MIC (Micrococcus luteus): 8 µM (≈ 15.1 µg/mL)
MIC [43]: 16 µM (≈ 30.2 µg/mL)
MIC [44]: 16 µM (≈ 30.2 µg/mL)
MIC [45]: 5 µM (≈ 9.45 µg/mL)
SMILES: CC(C)C[C@H](NC(=O)[C@H](C)NC(=O)CN)C(=O)N[C@@H](CCCN=C(N)N)C(=O)NCC(=O)N[C@H]1CSSC[C@@H](C(=O)N[C@@H](CCCCN)C(N)=O)NC(=O)[C@@H]2CCCN2C(=O)[C@H](CCCCN)NC(=O)[C@@H]2CCCN2C(=O)[C@@H]2CCCN2C(=O)[C@H](Cc2ccc(O)cc2)NC(=O)[C@H](CO)NC(=O)[C@H](CCCCN)NC(=O)[C@H]([C@@H](C)O)NC(=O)[C@H](Cc2c[nH]c3ccccc23)NC1=O [GALRGCWTKSYPPKPCK]
